In patent publication US8946426B2, “Substituted bicyclic heterocyclic compounds as gamma secretase modulators” (Janssen Pharmaceuticals, Inc., priority 2009, dated 2015):

Legend:
[1] = system: Aβ42; experiment: Method 1: Aβ42 sandwich ELISA in supernatant of SKNBE2 cells carrying APP 695-wild type (Tables 7a, 7b); format: cell-based
Procedure, shortened: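 SKNBE2 cells expressing wild-type APP695 were exposed to compound for 18 hours. Secreted Aβ42 was quantified by sandwich ELISA with C-terminal-selective capture, biotinylated 3D6 detection and TMB read-out at 450 nm. IC50 came from 4-parameter fits of % inhibition or % of untreated control; WST-1 monitored toxicity.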

[2] = system: Aβtotal; experiment: Method 1: Aβtotal sandwich ELISA in supernatant of SKNBE2 cells carrying APP 695-wild type (Tables 7a, 7b); format: cell-based
Procedure, shortened: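 SKNBE2 cells expressing wild-type APP695 were exposed to compound for 18 Hours in Ultraculture with 1% glutamine. Aβtotal in the supernatant was read by 6E10-capture/biotinylated 4G8 sandwich ELISA with a fluorogenic peroxidase read-out, and WST-1 checked toxicity. IC50 came from a 4-parameter fit of percent inhibition or percent of control versus concentration.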

[3] = system: Aβ42; experiment: In vivo efficacy: Aβ42 lowering in brain after single oral dose (Table 8); details: mouse brain soluble fraction, ELISA, compared to untreated animals
Description: (§1) To determine whether acute administration of an Aβ42 lowering agent would reduce Aβ42 levels in vivo, non-transgenic rodents, e.g. mice or rats were used. Alternatively, two to three month old Tg2576 mice expressing APP695 containing the “Swedish” variant can be used or a transgenic mouse model developed by Dr. Fred Van Leuven (K.U.Leuven, Belgium) and co-workers, with neuron-specific expression of a clinical mutant of the human amyloid precursor protein [V7171] (Moechars et al., 1999 J. Biol. Chem. 274, 6483). Young transgenic mice have high levels of Aβ in the brain but no detectable Aβ deposition. At approximately 6-8 months of age, the transgenic mice start to display spontaneous, progressive accumulation of β-amyloid (Aβ) in the brain, eventually resulting in amyloid plaques within the subiculum, hippocampus and cortex. Animals treated with the Aβ42 lowering agent were examined and compared to those untreated or treated with vehicle and brain levels of soluble Aβ42 and total Aβ would be quantitated by standard techniques, for example, using ELISA. Treatment periods varied from hours to days and were adjusted based on the results of the Aβ42 lowering once a time course of onset of effect could be established.
(§2) A typical protocol for measuring Aβ42 lowering in vivo is shown but it is only one of many variations that could be used to optimize the levels of detectable Aβ. For example, Aβ42 lowering compounds were formulated in 20% of Captisol® (a sulfobutyl ether of β-cyclodextrin) in water or 20% hydroxypropyl β cyclodextrin. The Aβ42 lowering agents were administered as a single oral dose or by any acceptable route of administration to overnight fasted animals. After four hours, the animals were sacrificed and Aβ42 levels were analysed.
(§3) Blood was collected by decapitation and exsanguinations in EDTA-treated collection tubes. Blood was centrifuged at 1900 g for 10 min at 4° C. and the plasma recovered and flash frozen for later analysis. The brain was removed from the cranium and hindbrain. The cerebellum was removed and the left and right hemisphere were separated. The left hemisphere was stored at −18° C. for quantitative analysis of test compound levels. The right hemisphere was rinsed with phosphate-buffered saline (PBS) buffer and immediately frozen on dry ice and stored at −80° C. until homogenization for biochemical assays.
(§4) Mouse brains were resuspended in 10 volumes of 0.4% DEA (diethylamine)/50 mM NaCl pH 10 (for non-transgenic animals) or 0.1% 3-[(3-cholamidopropyl)-dimethyl-ammonio]-1-propanesulfonate (CHAPS) in tris buffered saline (TBS) (for transgenic animals) containing protease inhibitors (Roche-11873580001 or 04693159000 per gram of tissue, e.g. for 0.158 g brain, add 1.58 ml of 0.4% DEA. All samples were sonicated for 30 sec on ice at 20% power output (pulse mode). Homogenates were centrifuged at 221.300×g for 50 min. The resulting high speed supernatants were then transferred to fresh tubes and were optionally further purified before the next step. A portion of the supernatant was neutralized with 10% 0.5 M Tris-HCl and this was used to quantify Aβtotal.
(§5) The obtained supernatants were purified with Water Oasis HLB reverse phase columns (Waters Corp., Milford, Mass.) to remove non-specific immunoreactive material from the brain lysates prior subsequent Aβ detection. Using a vacuum manifold, all solutions were passed through the columns at a rate of approximately 1 ml per minute, so the vacuum pressure was adjusted accordingly throughout the procedure. Columns were preconditioned with 1 ml of 100% MeOH, before equilibration with 1 ml of H2O. Non-neutralized brain lysates were loaded onto the columns. The loaded samples were then washed twice with the first wash performed with 1 ml of 5% MeOH, and the second wash with 1 ml of 30% MeOH. Finally, the Aβ was eluted from the columns and into 100×30 mm glass tubes, with a solution of 90% MeOH with 2% NH4OH. […]

[4] = system: Aβtotal; experiment: In vivo efficacy: Aβtotal lowering in brain after single oral dose (Table 8); details: mouse brain soluble fraction, ELISA, compared to untreated animals
Description: as §1, §2, §3, §4, §5

[5] = system: Aβ42; experiment: Method 2: Aβ42 Alphalisa in supernatant of SKNBE2 cells carrying APP 695-wild type (Table 7c); format: cell-based; details: Method 2, Alphalisa, overnight incubation
Description: (§6) Screening was carried out using SKNBE2 cells carrying the APP 695-wild type, grown in Dulbecco's Modified Eagle's Medium/Nutrient mixture F-12 (DMEM/NUT-mix F-12) (HAM) provided by Invitrogen (cat no. 10371-029) containing 5% Serum/Fe supplemented with 1% non-essential amino acids, 1-glutamine 2 mM, Hepes 15 mM, penicillin 50 U/ml (units/ml) en streptomycin 50 μg/ml. Cells were grown to near confluency.
(§7) The screening was performed using a modification of the assay as described in Citron et al (1997) Nature Medicine 3: 67. Briefly, cells were plated in a 384-well plate at 10^4 cells/well in Ultraculture (Lonza, BE12-725F) supplemented with 1% glutamine (Invitrogen, 25030-024), 1% non-essential amino acid (NEAA), penicillin 50 U/ml en streptomycin 50 μg/ml in the presence of test compound at different test concentrations. The cell/compound mixture was incubated overnight at 37° C., 5% CO2. The next day the media were assayed by two sandwich immuno-assays, for Aβ42 and Aβtotal.
(§8) Aβtotal and Aβ42 concentrations were quantified in the cell supernatant using the Aphalisa technology (Perkin Elmer). Alphalisa is a sandwich assay using biotinylated antibody attached to streptavidin coated donorbeads and antibody conjugated to acceptor beads. In the presence of antigen, the beads come into close proximity. The excitation of the donor beads provokes the release of singlet oxygen molecules that trigger a cascade of energy transfer in the acceptor beads, resulting in light emission. To quantify the amount of Aβ42 in the cell supernatant, monoclonal antibody specific to the C-terminus of Aβ42 (JRF/cAβ42/26) was coupled to the receptor beads and biotinylated antibody specific to the N-terminus of Aβ (JRF/AβN/25) was used to react with the donor beads. To quantify the amount of Aβtotal in the cell supernatant, monoclonal antibody specific to the N-terminus of Aβ (JRF/AβN/25) was coupled to the receptor beads and biotinylated antibody specific to the mid region of Aβ (biotinylated 4G8) was used to react with the donor beads.
(§9) To obtain the values reported in Table 7c, the data were calculated as percentage of the maximum amount of amyloid Beta 42 measured in the absence of the test compound. The sigmoidal dose response curves were analyzed using non-linear regression analysis with percentage of the control plotted against the log concentration of the compound. A 4-parameter equation was used to determine the IC50.

[6] = system: Aβtotal; experiment: Method 2: Aβtotal Alphalisa in supernatant of SKNBE2 cells carrying APP 695-wild type (Table 7c); format: cell-based; details: Method 2, Alphalisa, overnight incubation
Description: as §6, §7, §8, §9

[7] = Homo sapiens, SKNBE2, Table 7b, averaged IC50, non-linear regression of percentage of control vs log concentration, 4-parameter equation
[8] = Homo sapiens, Table 7a, SKNBE2 cells, compounds 18 h, XLfit 4-parameter fit of percent inhibition, top/bottom fixed to 100/0, hill slope 1
[9] = Table 7a, SKNBE2 cells, compounds 18 h, XLfit 4-parameter fit of percent inhibition, top/bottom fixed to 100/0, hill slope 1
[10] = Table 7b, averaged IC50, non-linear regression of percentage of control vs log concentration, 4-parameter equation

Compound	IC50 [1, 10]	IC50 [2, 10]	Aβ42 (% Ctrl)_Mean [3]	Aβtotal (% Ctrl)_Mean [4]	also measured
COc1cc(Nc2cccn3cc(-c4ccc(F)cc4)nc23)ccc1-c1ocnc1C [Compound 1]	–	–	–	–	IC50 [1, 7]: 0.2 µM; IC50 [1, 8]: 0.203 µM; IC50 [2, 7]: > 5 µM; IC50 [2, 8]: > 5 µM; melting point: 163.2 °C
COc1cccc(-c2nc3c(Nc4ccc(-c5ocnc5C)c(OC)c4)cccn3c2C)c1 [Compound 2]	–	–	95 % Ctrl	104 % Ctrl	IC50 [1, 7]: 0.02 µM; IC50 [1, 8]: 0.022 µM; IC50 [2, 7]: > 3 µM; IC50 [2, 8]: > 3 µM
COc1cc(Nc2cccn3cc(-c4ccc(F)cc4)nc23)ccc1-c1cnc(C)o1 [Compound 3]	–	–	–	–	IC50 [1, 7]: 0.178 µM; IC50 [1, 8]: 0.196 µM; IC50 [2, 7]: > 10 µM; IC50 [2, 8]: > 10 µM; melting point: 219.1 °C
COc1cc(Nc2cccc3c2nc(-c2ccc(F)cc2)n3C(C)C)ccc1-c1cnc(C)o1.Cl.Cl [Compound 25]	0.023 µM	> 3 µM	76 % Ctrl	96 % Ctrl	IC50 [1, 9]: 0.024 µM; IC50 [2, 9]: > 3 µM
COc1cc(Nc2cc(C(F)(F)F)cc3c2nc(-c2ccc(F)cc2)n3C)ccc1-c1cnc(C)o1 [Compound 30]	0.035 µM	> 10 µM	96 % Ctrl	92 % Ctrl	–
COc1cc(Nc2nccc3c2nc(-c2ccc(F)cc2F)n3C)ccc1-c1cnc(C)o1 [Compound 31]	0.078 µM	> 3 µM	91 % Ctrl	102 % Ctrl	IC50 [1, 9]: 0.076 µM; IC50 [2, 9]: > 3 µM
COc1ccc(C)c(-c2cn3cccc(Nc4ccc(-c5cnc(C)o5)cc4)c3n2)c1 [Compound 40]	0.012 µM	> 3 µM	77 % Ctrl	102 % Ctrl	IC50 [1, 9]: 0.011 µM; IC50 [2, 9]: > 3 µM
COc1ccc(C)c(-c2cn3cccc(Nc4ccc(-c5cnc(C)o5)c(F)c4)c3n2)c1 [Compound 41]	0.126 µM	> 3 µM	93 % Ctrl	87 % Ctrl	–
COc1cc(Nc2nccc3c2nc(-c2ccc(F)cc2F)n3C)ccc1-c1ocnc1C [Compound 54]	0.49 µM	> 10 µM	101 % Ctrl	104 % Ctrl	–
Cc1ncc(-c2ccc(Nc3cc(C(F)(F)F)cc4c3nc(-c3ccc(F)cc3)n4C)cn2)o1 [Compound 101]	–	–	77 % Ctrl	92 % Ctrl	IC50 [5]: 0.046 µM; IC50 [6]: > 10 µM
COc1cc(Nc2cc(F)cc3c2nc(N2CCCC2)n3C)ccc1-c1cnc(C)o1 [Compound 104]	–	–	110 % Ctrl	97 % Ctrl	IC50 [5]: 0.501 µM; IC50 [6]: > 10 µM
COc1cc(Nc2cc(C(F)(F)F)cn3cc(C(C)=O)nc23)ccc1-c1ocnc1C [Compound 165]	–	–	–	–	IC50 [1, 7]: 0.288 µM; IC50 [2, 7]: > 30 µM; melting point: 183.6 °C
Cc1ncc(-c2ccc(Nc3cccn4c(C(C)C)c(-c5ccc(F)cc5)nc34)cc2)o1 [Compound 175]	–	–	–	–	IC50 [1, 7]: 0.033 µM; IC50 [2, 7]: > 3 µM; melting point: 157.2 °C
Cc1cn2cc(Br)nc(Nc3ccc(-c4cnc(C)o4)cc3)c2n1 [Compound 179]	–	–	–	–	IC50 [1, 7]: > 3 µM; IC50 [2, 7]: > 3 µM; melting point: 200.1 °C

The next lines start with results.

IC50 [1, 10]	IC50 [2, 10]	Compound	Aβ42 (% Ctrl)_Mean [3]	Aβtotal (% Ctrl)_Mean [4]	also measured
0.24 µM	> 10 µM	Cc1cc2c(nc(-c3ccc(F)cc3)n2C)c(Nc2ccc(-c3cnc(C)o3)cc2)n1 [Compound 58]	89 % Ctrl	105 % Ctrl	–
0.072 µM	> 3 µM	COc1cc(Nc2nc(C)cc3c2nc(-c2ccc(F)cc2)n3C)ccc1-c1cnc(C)o1 [Compound 59]	97 % Ctrl	95 % Ctrl	–
0.011 µM	> 3 µM	COc1cccc(-c2nc3c(Nc4ccc(-c5cnc(C)o5)c(OC)c4)cccc3n2C)c1 [Compound 63]	56 % Ctrl	90 % Ctrl	–
0.023 µM	> 3 µM	COc1cc(Nc2ccc(-c3cnc(C)o3)c(OC)c2)c2nc(-c3ccc(F)cc3)n(C)c2c1 [Compound 95]	47 % Ctrl	88 % Ctrl	–
0.021 µM	> 3 µM	COc1cccc(-c2nc3c(Nc4ccc(-c5cnc(C)o5)c(OC)c4)nc(C)cc3n2C)c1 [Compound 97]	71 % Ctrl	102 % Ctrl	–
0.251 µM	> 10 µM	COc1cc(Nc2cc(C(F)(F)F)cn3cc(C)nc23)ccc1-c1ocnc1C.Cl.Cl [Compound 141]	87 % Ctrl	89 % Ctrl	–
0.081 µM	> 10 µM	COc1cc(Nc2cc(F)cn3cc(CC(C)C)nc23)ccc1-c1ocnc1C.Cl [Compound 157]	77 % Ctrl	100 % Ctrl	–
> 3 µM	> 3 µM	Cc1ncc(-c2ccc(Nc3cc(C(F)(F)F)cn4cc(C(=O)N(C)C)nc34)cc2F)o1 [Compound 181]	104 % Ctrl	105 % Ctrl	–
